Assay results: patent publication US10206937B2, “Boronic acid derivatives and therapeutic uses thereof” (Qpex Biopharma, Inc., priority 2014, dated 2019)

Legend:
[1] = molecular target: T1, VIM-1 (Pseudomonas aeruginosa, UniProt A0A0F7KYQ8); assay: biochemical; conditions: cleavage of nitrocefin (200 uM) by VIM-1 supernatant
T1 construct: made in house; host or cells: ECM6711 strain carrying pUCP24-VIM-1 plasmid; culture supernatant used unpurified

[2] = molecular target: T2, purified class A, C and D enzymes (UniProt P0AD64, L31Q/G234S/E235K, species not given); assay type: biochemical; conditions: read-out: Ki (SHV-12, NCF); purified SHV-12; nitrocefin reporter substrate
T2 construct: Ki (SHV-12, NCF); other: purified SHV-12; nitrocefin reporter substrate
T2 sequence (P0AD64 1-286 L31Q/G234S/E235K): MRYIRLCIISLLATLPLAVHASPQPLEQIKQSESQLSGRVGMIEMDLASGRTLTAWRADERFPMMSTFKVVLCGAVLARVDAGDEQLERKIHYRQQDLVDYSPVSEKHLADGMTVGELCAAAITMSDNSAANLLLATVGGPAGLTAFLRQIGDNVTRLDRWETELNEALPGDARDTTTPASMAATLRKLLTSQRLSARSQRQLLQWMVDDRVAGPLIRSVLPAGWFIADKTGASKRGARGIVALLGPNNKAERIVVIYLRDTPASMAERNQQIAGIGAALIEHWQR

[3] = molecular target: purified class A, C and D enzymes (Escherichia coli, UniProt Q9L5C7); assay type: biochemical; conditions: purified CTX-M-14; nitrocefin reporter substrate
[4] = molecular target: T3, purified class A, C and D enzymes (UniProt Q9F663); assay type: biochemical; conditions: read-out: Ki (KPC-2, NCF); purified KPC-2; nitrocefin reporter substrate
T3 construct: rows headed: Ki (KPC-2, NCF); other: purified KPC-2; nitrocefin reporter substrate

[5] = molecular target: T4, purified class A, C and D enzymes (UniProt Q6XEC0); assay type: biochemical; conditions: read-out: Ki (OXA-48, NCF); purified OXA-48; nitrocefin reporter substrate
T4 construct: rows headed: Ki (OXA-48, NCF); other: purified OXA-48; nitrocefin reporter substrate

[6] = molecular target: purified class A, C and D enzymes (Enterobacter cloacae, UniProt P05364); assay type: biochemical; conditions: purified P99/AmpC of ECL; nitrocefin reporter substrate
[7] = molecular target: T5, NDM-1 (Klebsiella pneumoniae, UniProt C7C422); assay: Inhibition of purified class B carbapenemase NDM-1 (Ki, imipenem substrate); assay type: biochemical; conditions: NDM-1, substrate imipenem; read-out: Ki NDM-1, Imipenem
[8] = molecular target: T5, NDM-1; assay: biochemical; conditions: cleavage of imipenem (100 uM) by NDM-1; read-out: Ki, Imipenem

Sequence of purified class A, C and D enzymes (Enterobacter cloacae, UniProt P05364) (P05364 21-381): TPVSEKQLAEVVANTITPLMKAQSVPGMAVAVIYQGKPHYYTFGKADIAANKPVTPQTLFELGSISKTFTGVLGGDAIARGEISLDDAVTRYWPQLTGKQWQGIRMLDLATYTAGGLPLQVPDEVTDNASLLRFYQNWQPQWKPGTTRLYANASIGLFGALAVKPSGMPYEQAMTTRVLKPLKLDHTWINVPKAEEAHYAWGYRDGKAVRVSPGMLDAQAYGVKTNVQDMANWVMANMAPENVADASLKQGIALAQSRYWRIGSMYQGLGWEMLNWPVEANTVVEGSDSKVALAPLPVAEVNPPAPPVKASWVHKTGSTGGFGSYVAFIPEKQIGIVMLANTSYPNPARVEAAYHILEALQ
Sequence of purified class A, C and D enzymes (Escherichia coli, UniProt Q9L5C7) (Q9L5C7 entry or part of it): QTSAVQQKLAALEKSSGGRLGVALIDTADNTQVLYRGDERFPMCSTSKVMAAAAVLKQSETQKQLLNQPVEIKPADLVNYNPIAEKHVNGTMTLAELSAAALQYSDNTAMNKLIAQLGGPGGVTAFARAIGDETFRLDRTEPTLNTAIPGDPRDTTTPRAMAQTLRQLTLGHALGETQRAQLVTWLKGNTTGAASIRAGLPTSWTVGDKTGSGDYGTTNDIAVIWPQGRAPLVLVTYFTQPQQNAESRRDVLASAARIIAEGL
T5 sequence (C7C422 29-270, looked up, species assumed): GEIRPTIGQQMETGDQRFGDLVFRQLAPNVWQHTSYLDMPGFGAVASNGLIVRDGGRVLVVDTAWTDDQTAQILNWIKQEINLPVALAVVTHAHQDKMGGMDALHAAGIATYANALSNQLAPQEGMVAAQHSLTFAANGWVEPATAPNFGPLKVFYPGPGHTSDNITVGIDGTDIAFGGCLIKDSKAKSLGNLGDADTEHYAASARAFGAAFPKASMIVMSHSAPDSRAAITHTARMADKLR

Row | SMILES | IC50 [1] [nM] | Ki [2] [nM] | Ki (CTX-M-14, NCF) [3] | Ki [4] [nM] | Ki [5] [nM] | Ki (P99/AmpC of ECL, NCF) [6] | Ki [7] [nM] | Ki [8] [nM]
1 | COc1ccc2c(c1C(=O)O)OB(O)[C@@H](Sc1nnc(NC3CCNCC3)s1)C2 [Compound 104, (3R)-2-hydroxy-7-methoxy-3-[[5-(4-piperidylamino)-1,3,4-thiadiazol-2-yl]sulfanyl]-3,4-dihydro-1,2-benzoxaborinine-8-carboxylic acid] | < 1000 | < 100 | X (Less than 0.1 μM) | < 100 | < 100 | Y (0.1 μM to 1 μM) | < 10 | < 10
2 | O=C(O)c1c(F)ccc2c1OB(O)[C@@H](Sc1nccs1)C2 [Compound 45, (R)-7-fluoro-2-hydroxy-3-(thiazol-2-ylthio)-3,4-dihydro-2H-benzo[e][1,2]oxaborinine-8-carboxylic acid] | ≥ 1000 | < 100 | X (Less than 0.1 μM) | 100 to 1000 | < 100 | Z (Greater than 1 μM) | 10 to 100 | 10 to 100
3 | NCCSc1nnc(S[C@H]2Cc3cccc(C(=O)O)c3OB2O)s1 [Compound 116, (3R)-3-[[5-(2-aminoethylsulfanyl)-1,3,4-thiadiazol-2-yl]sulfanyl]-2-hydroxy-3,4-dihydro-1,2-benzoxaborinine-8-carboxylic acid] | < 1000 | < 100 | X (Less than 0.1 μM) | < 100 | < 100 | X (Less than 0.1 μM) | < 10 | < 10
4 | COc1c(Cl)cc2c(c1C(=O)O)OB(O)[C@@H](Sc1nnc(N)s1)C2 [Compound 42, (R)-3-(5-amino-1,3,4-thiadiazol-2-ylthio)-6-chloro-2-hydroxy-7-methoxy-3,4-dihydro-2H-benzo[e][1,2]oxaborinine-8-carboxylic acid] | < 1000 | < 100 | X (Less than 0.1 μM) | 100 to 1000 | < 100 | Y (0.1 μM to 1 μM) | < 10 | < 10
5 | Nc1nnc(S[C@H]2Cc3ccc(OCC(F)F)c(C(=O)O)c3OB2O)s1 [Compound 90, (3R)-3-[(5-amino-1,3,4-thiadiazol-2-yl)sulfanyl]-7-(2,2-difluoroethoxy)-2-hydroxy-3,4-dihydro-1,2-benzoxaborinine-8-carboxylic acid] | < 1000 | < 100 | X (Less than 0.1 μM) | < 100 | < 100 | Z (Greater than 1 μM) | 10 to 100 | 10 to 100
6 | COc1ccc2c(c1C(=O)O)OB(O)[C@@H](Sc1nc(N)n[nH]1)C2 [Compound 82, (3R)-3-[(3-amino-1H-1,2,4-triazol-5-yl)sulfanyl]-2-hydroxy-7-methoxy-3,4-dihydro-1,2-benzoxaborinine-8-carboxylic acid] | < 1000 | < 100 | X (Less than 0.1 μM) | 100 to 1000 | < 100 | Y (0.1 μM to 1 μM) | < 10 | < 10
7 | COc1ccc2c(c1C(=O)O)OB(O)[C@@H](Sc1nnc(SCCN3CCNCC3)s1)C2 [Compound 68, (3R)-2-hydroxy-7-methoxy-3-[[5-(2-piperazin-1-ylethylsulfanyl)-1,3,4-thiadiazol-2-yl]sulfanyl]-3,4-dihydro-1,2-benzoxaborinine-8-carboxylic acid] | < 1000 | < 100 | X (Less than 0.1 μM) | 100 to 1000 | < 100 | Y (0.1 μM to 1 μM) | > 100 | > 100
8 | C[S+]([O-])c1ccc2c(c1C(=O)O)OB(O)[C@@H](Sc1nnc(N)s1)C2 (stereo partly drawn) [Compound 34, (3R)-3-(5-amino-1,3,4-thiadiazol-2-ylthio)-2-hydroxy-7-(methylsulfinyl)-3,4-dihydro-2H-benzo[e][1,2]oxaborinine-8-carboxylic acid] | < 1000 | < 100 | X (Less than 0.1 μM) | 100 to 1000 | < 100 | X (Less than 0.1 μM) | 10 to 100 | 10 to 100
9 | COc1ccc2c(c1C(=O)O)OB(O)[C@@H](Sc1ncn(CCCC(=O)O)n1)C2 [Compound 40, (R)-3-(1-(3-carboxypropyl)-1H-1,2,4-triazol-3-ylthio)-2-hydroxy-7-methoxy-3,4-dihydro-2H-benzo[e][1,2]oxaborinine-8-carboxylic acid] | ≥ 1000 | < 100 | X (Less than 0.1 μM) | < 100 | < 100 | X (Less than 0.1 μM) | > 100 | > 100
10 | Nc1nnc(S[C@H]2Cc3c(F)c(F)c(F)c(C(=O)O)c3OB2O)s1 [Compound 38, (R)-3-(5-amino-1,3,4-thiadiazol-2-ylthio)-5,6,7-trifluoro-2-hydroxy-3,4-dihydro-2H-benzo[e][1,2]oxaborinine-8-carboxylic acid] | ≥ 1000 | < 100 | X (Less than 0.1 μM) | > 1000 | < 100 | Y (0.1 μM to 1 μM) | > 100 | > 100
11 | Nc1nnc(S[C@H]2Cc3cc4nc[nH]c4c(C(=O)O)c3OB2O)s1 [Compound 115, (3R)-3-[(5-amino-1,3,4-thiadiazol-2-yl)sulfanyl]-2-hydroxy-4,8-dihydro-3H-oxaborinino[6,5-f]benzimidazole-9-carboxylic acid] | < 1000 | < 100 | X (Less than 0.1 μM) | 100 to 1000 | < 100 | X (Less than 0.1 μM) | > 100 | > 100
12 | Cc1ccc2c(c1C(=O)O)OB(O)[C@@H](Sc1nnc(N)s1)C2 [Compound 31, (R)-3-(5-amino-1,3,4-thiadiazol-2-ylthio)-2-hydroxy-7-methyl-3,4-dihydro-2H-benzo[e][1,2]oxaborinine-8-carboxylic acid] | ≥ 1000 | < 100 | X (Less than 0.1 μM) | 100 to 1000 | < 100 | Y (0.1 μM to 1 μM) | > 100 | > 100
13 | COc1ccc2c(c1C(=O)O)OB(O)[C@@H](SCCc1nnc(N)s1)C2 [Compound 43, (R)-3-(2-(5-amino-1,3,4-thiadiazol-2-yl)ethylthio)-2-hydroxy-7-methoxy-3,4-dihydro-2H-benzo[e][1,2]oxaborinine-8-carboxylic acid] | < 1000 | < 100 | X (Less than 0.1 μM) | < 100 | < 100 | X (Less than 0.1 μM) | < 10 | < 10
14 | COc1ccc2c(c1C(=O)O)OB(O)[C@@H](Sc1nnc(NCCN3CCNCC3)s1)C2 [Compound 98, (3R)-2-hydroxy-7-methoxy-3-[[5-(2-piperazin-1-ylethylamino)-1,3,4-thiadiazol-2-yl]sulfanyl]-3,4-dihydro-1,2-benzoxaborinine-8-carboxylic acid] | < 1000 | < 100 | X (Less than 0.1 μM) | 100 to 1000 | < 100 | Y (0.1 μM to 1 μM) | 10 to 100 | 10 to 100
15 | Nc1ncc(S[C@H]2Cc3ccc(F)c(C(=O)O)c3OB2O)s1 [Compound 52, (3R)-3-(2-aminothiazol-5-yl)sulfanyl-7-fluoro-2-hydroxy-3,4-dihydro-1,2-benzoxaborinine-8-carboxylic acid] | < 1000 | < 100 | X (Less than 0.1 μM) | < 100 | < 100 | Y (0.1 μM to 1 μM) | > 100 | > 100
16 | COc1ccc2c(c1C(=O)O)OB(O)[C@@H](Sc1nnc(SCCN3CCOCC3)s1)C2 [Compound 110, (3R)-2-hydroxy-7-methoxy-3-[[5-(2-morpholinoethylsulfanyl)-1,3,4-thiadiazol-2-yl]sulfanyl]-3,4-dihydro-1,2-benzoxaborinine-8-carboxylic acid] | < 1000 | < 100 | X (Less than 0.1 μM) | < 100 | < 100 | Y (0.1 μM to 1 μM) | > 100 | > 100
